Measured values from PubChem BioAssay AID248 (DTP/NCI, 2004).
Where “and” joins values, the source holds several entries; their conditions need not be identical. Equal entries are not always repeated. Inconclusive results and toxic doses are left out. Rule as the data show it: active = T/C of 150% or more; inactive = T/C below 125%.

System: L1210 leukemia ip in BDF1 mice, survival T/C
Assay: NCI In Vivo Anticancer Drug Screen. Data for tumor model L1210 Leukemia (intraperitoneal) in B6D2F1 (BDF1) mice
Details: higher = longer survival
Procedure, shortened: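 Transplantable tumor model; survival measured in treated vs vehicle control mice. Value = treated/control.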

[1] = endpoint: mean survival time, dose: 100.0 mg/kg/injection, schedule: Q01DX001 (ip), vehicle: Klucel (hydroxypropylcellulose) (HPC)
[2] = endpoint: mean survival time, dose: 200.0 mg/kg/injection, schedule: Q01DX001 (ip), vehicle: Klucel (hydroxypropylcellulose) (HPC)

Measured: T/C

S=P(N1CCOCC1)(N1CC1)N1CC1
active: endpoint: mean survival time, dose: 20.0 mg/kg/injection, schedule: Q01DX Z (im), vehicle: saline 168 % of control | endpoint: mean survival time, dose: 20.0 mg/kg/injection, schedule: Q01DX Z (ip), vehicle: saline 160 % of control | endpoint: mean survival time, dose: 26.0 mg/kg/injection, schedule: Q01DX003 (ip), vehicle: saline 166 % of control | endpoint: mean survival time, dose: 30.0 mg/kg/injection, schedule: Q03DX006 (ip), vehicle: saline 160 % of control | endpoint: mean survival time, dose: 40.0 mg/kg/injection, schedule: Q01DX003 (ip), vehicle: saline 150 % of control and 173 % of control | endpoint: mean survival time, dose: 60.0 mg/kg/injection, schedule: Q01DX003 (ip), vehicle: saline 156 % of control and 178 % of control | endpoint: mean survival time, dose: 70.0 mg/kg/injection, schedule: Q07DX003 (ip), vehicle: saline 178 % of control | endpoint: mean survival time, dose: 80.0 mg/kg/injection, schedule: Q01DX006 (iv), vehicle: saline 164 % of control | endpoint: median survival time, dose: 20.0 mg/kg/injection, schedule: Q01DX009 (ip), vehicle: saline 166 % of control and 168 % of control
inactive: endpoint: mean survival time, dose: 2.4 mg/kg/injection, schedule: Q01DX001 (ip), vehicle: saline 106 % of control | endpoint: mean survival time, dose: 2.4 mg/kg/injection, schedule: Q07DX003 (ip), vehicle: saline 104 % of control | endpoint: mean survival time, dose: 2.5 mg/kg/injection, schedule: Q01DX Z (ip), vehicle: carboxymethylcellulose (CMC) 109 % of control | endpoint: mean survival time, dose: 2.5 mg/kg/injection, schedule: Q#A X Z (ip), vehicle: saline 102 % of control | endpoint: mean survival time, dose: 4.3 mg/kg/injection, schedule: Q01DX001 (ip), vehicle: saline 117 % of control | endpoint: mean survival time, dose: 4.3 mg/kg/injection, schedule: Q07DX003 (ip), vehicle: saline 113 % of control | endpoint: mean survival time, dose: 5.0 mg/kg/injection, schedule: Q01DX006 (iv), vehicle: saline 107 % of control | endpoint: mean survival time, dose: 5.0 mg/kg/injection, schedule: Q01DX009 (ip), vehicle: saline 101 % of control and 104 % of control | endpoint: mean survival time, dose: 5.0 mg/kg/injection, schedule: Q01DX010 (ip), vehicle: saline 97 % of control and 103 % of control | endpoint: mean survival time, dose: 5.0 mg/kg/injection, schedule: Q01DX Z (im), vehicle: saline 104 % of control | endpoint: mean survival time, dose: 5.0 mg/kg/injection, schedule: Q01DX Z (ip), vehicle: carboxymethylcellulose (CMC) 102 % of control | endpoint: mean survival time, dose: 5.0 mg/kg/injection, schedule: Q01DX Z (ip), vehicle: saline 110 % of control | endpoint: mean survival time, dose: 5.0 mg/kg/injection, schedule: Q01DX Z (sc), vehicle: saline 107 % of control | endpoint: mean survival time, dose: 5.0 mg/kg/injection, schedule: Q#A X Z (ip), vehicle: saline 106 % of control | endpoint: mean survival time, dose: 8.7 mg/kg/injection, schedule: Q01DX001 (ip), vehicle: saline 103 % of control | endpoint: mean survival time, dose: 8.7 mg/kg/injection, schedule: Q07DX003 (ip), vehicle: saline 115 % of control | endpoint: mean survival time, dose: 10.0 mg/kg/injection, schedule: Q01DX006 (iv), vehicle: saline 109 % of control | endpoint: mean survival time, dose: 10.0 mg/kg/injection, schedule: Q01DX009 (ip), vehicle: saline 101 % of control and 104 % of control | endpoint: mean survival time, dose: 10.0 mg/kg/injection, schedule: Q01DX010 (ip), vehicle: saline 114 % of control and 124 % of control | endpoint: mean survival time, dose: 10.0 mg/kg/injection, schedule: Q01DX Z (im), vehicle: saline 114 % of control | endpoint: mean survival time, dose: 10.0 mg/kg/injection, schedule: Q01DX Z (ip), vehicle: carboxymethylcellulose (CMC) 115 % of control | endpoint: mean survival time, dose: 10.0 mg/kg/injection, schedule: Q01DX Z (ip), vehicle: saline 116 % of control | endpoint: mean survival time, dose: 10.0 mg/kg/injection, schedule: Q01DX Z (sc), vehicle: saline 107 % of control | endpoint: mean survival time, dose: 15.0 mg/kg/injection, schedule: Q03DX006 (ip), vehicle: saline 118 % of control | endpoint: mean survival time, dose: 17.5 mg/kg/injection, schedule: Q01DX001 (ip), vehicle: saline 106 % of control | endpoint: mean survival time, dose: 18.0 mg/kg/injection, schedule: Q01DX003 (ip), vehicle: saline 118 % of control | endpoint: mean survival time, dose: 20.0 mg/kg/injection, schedule: Q01DX009 (ip), vehicle: saline 108 % of control and 120 % of control | endpoint: mean survival time, dose: 20.0 mg/kg/injection, schedule: Q01DX010 (ip), vehicle: saline 118 % of control and 119 % of control | endpoint: mean survival time, dose: 20.0 mg/kg/injection, schedule: Q01DX Z (ip), vehicle: carboxymethylcellulose (CMC) 123 % of control | endpoint: mean survival time, dose: 20.0 mg/kg/injection, schedule: Q01DX Z (oral), vehicle: saline 122 % of control | endpoint: mean survival time, dose: 35.0 mg/kg/injection, schedule: Q01DX001 (ip), vehicle: saline 120 % of control | endpoint: mean survival time, dose: 40.0 mg/kg/injection, schedule: Q01DX009 (ip), vehicle: saline 101 % of control and 104 % of control | endpoint: mean survival time, dose: 40.0 mg/kg/injection, schedule: Q01DX010 (ip), vehicle: saline 104 % of control | endpoint: mean survival time, dose: 40.0 mg/kg/injection, schedule: Q01DX Z (im), vehicle: saline 110 % of control | endpoint: mean survival time, dose: 40.0 mg/kg/injection, schedule: Q01DX Z (ip), vehicle: saline 89 % of control | endpoint: mean survival time, dose: 40.0 mg/kg/injection, schedule: Q#A X Z (ip), vehicle: saline 92 % of control | endpoint: mean survival time, dose: 80.0 mg/kg/injection, schedule: Q01DX Z (oral), vehicle: saline 100 % of control | endpoint: mean survival time, dose: 140.0 mg/kg/injection, schedule: Q01DX001 (ip), vehicle: saline 107 % of control | endpoint: mean survival time, dose: 280.0 mg/kg/injection, schedule: Q01DX001 (ip), vehicle: saline 102 % of control | endpoint: median survival time, dose: 5.0 mg/kg/injection, schedule: Q01DX009 (ip), vehicle: saline 100 % of control and 111 % of control | endpoint: median survival time, dose: 10.0 mg/kg/injection, schedule: Q01DX009 (ip), vehicle: saline 106 % of control and 122 % of control | endpoint: median survival time, dose: 40.0 mg/kg/injection, schedule: Q01DX009 (ip), vehicle: saline 122 % of control

COc1cccc2c1[nH]c1cc3ccncc3cc12
inactive: endpoint: mean survival time, dose: 25.0 mg/kg/injection, schedule: Q01DX001 (ip), vehicle: saline 107 % of control | endpoint: mean survival time, dose: 50.0 mg/kg/injection, schedule: Q01DX001 (ip), vehicle: saline 112 % of control | endpoint: mean survival time, dose: 100.0 mg/kg/injection, schedule: Q01DX001 (ip), vehicle: saline 98 % of control and 102 % of control | endpoint: mean survival time, dose: 100.0 mg/kg/injection, schedule: Q04DX003 (ip), vehicle: Klucel (hydroxypropylcellulose) (HPC) 95 % of control | endpoint: mean survival time, dose: 200.0 mg/kg/injection, schedule: Q04DX003 (ip), vehicle: Klucel (hydroxypropylcellulose) (HPC) 95 % of control

NC(=O)c1[nH]cnc1N1CC[N+](Cc2ccccc2)=N1
inactive: [1] 102 % of control | [2] 96 % of control

CC1CN1P1(=O)OCC(C)([N+](=O)[O-])CO1 (stereo unspecified)
inactive: endpoint: mean survival time, dose: 50.0 mg/kg/injection, schedule: Q01DX001 (ip), vehicle: carboxymethylcellulose (CMC) 106 % of control | endpoint: mean survival time, dose: 100.0 mg/kg/injection, schedule: Q01DX001 (ip), vehicle: carboxymethylcellulose (CMC) 110 % of control | endpoint: mean survival time, dose: 200.0 mg/kg/injection, schedule: Q01DX001 (ip), vehicle: carboxymethylcellulose (CMC) 104 % of control | endpoint: mean survival time, dose: 400.0 mg/kg/injection, schedule: Q01DX001 (ip), vehicle: carboxymethylcellulose (CMC) 112 % of control

CCCNC(=O)Nc1cccc(Cl)c1C
inactive: endpoint: mean survival time, dose: 100.0 mg/kg/injection, schedule: Q01DX009 (ip), vehicle: saline with Tween-80 102 % of control | endpoint: mean survival time, dose: 100.0 mg/kg/injection, schedule: Q04DX003 (ip), vehicle: saline with Tween-80 101 % of control | endpoint: mean survival time, dose: 200.0 mg/kg/injection, schedule: Q01DX009 (ip), vehicle: saline with Tween-80 94 % of control | endpoint: mean survival time, dose: 200.0 mg/kg/injection, schedule: Q04DX003 (ip), vehicle: saline with Tween-80 94 % of control | endpoint: mean survival time, dose: 400.0 mg/kg/injection, schedule: Q01DX009 (ip), vehicle: saline with Tween-80 100 % of control | endpoint: mean survival time, dose: 400.0 mg/kg/injection, schedule: Q04DX003 (ip), vehicle: saline with Tween-80 100 % of control

COc1cc(C(=O)CC(O)(C(F)(F)F)C(F)(F)F)cc(OC)c1OC
inactive: endpoint: mean survival time, dose: 50.0 mg/kg/injection, schedule: Q01DX009 (ip), vehicle: Klucel (hydroxypropylcellulose) (HPC) 95 % of control | [1] 86 % of control | endpoint: mean survival time, dose: 100.0 mg/kg/injection, schedule: Q01DX009 (ip), vehicle: Klucel (hydroxypropylcellulose) (HPC) 97 % of control | [2] 100 % of control | endpoint: mean survival time, dose: 200.0 mg/kg/injection, schedule: Q01DX009 (ip), vehicle: Klucel (hydroxypropylcellulose) (HPC) 98 % of control

CSc1nc2c(N)ncnc2n1C1OC(CO)C(O)C1O (stereo unspecified)
inactive: endpoint: mean survival time, dose: 100.0 mg/kg/injection, schedule: Q01DX005 (ip), vehicle: saline 98 % of control | endpoint: mean survival time, dose: 200.0 mg/kg/injection, schedule: Q01DX005 (ip), vehicle: saline 101 % of control

COCn1cnc2c(F)ncnc21
inactive: endpoint: mean survival time, dose: 6.25 mg/kg/injection, schedule: Q01DX009 (ip), vehicle: saline 94 % of control | endpoint: mean survival time, dose: 6.25 mg/kg/injection, schedule: Q04DX003 (ip), vehicle: saline 101 % of control | endpoint: mean survival time, dose: 12.5 mg/kg/injection, schedule: Q01DX009 (ip), vehicle: saline 100 % of control | endpoint: mean survival time, dose: 12.5 mg/kg/injection, schedule: Q04DX003 (ip), vehicle: saline 104 % of control | endpoint: mean survival time, dose: 25.0 mg/kg/injection, schedule: Q01DX009 (ip), vehicle: saline 101 % of control | endpoint: mean survival time, dose: 25.0 mg/kg/injection, schedule: Q04DX003 (ip), vehicle: saline 102 % of control
